Laboratory results reported in patent US20250114345A1, “COMPOUNDS AND COMPOSITIONS AS CBP/P300 DEGRADERS AND USES THEREOF” (Oncopia Therapeutics, Inc. d/b/a/ SK Life Science Labs, priority 2023, published 2025).

What was measured:
p300 = target: T1, p300 (Homo sapiens, UniProt Q09472); assay: P300 degradation, HiBit technology in A549 P300 HiBit cells (2 h); assay type: cell-based; conditions: 2 hrs post treatment; for Dmax: A549, A549 P300 HiBit cells; for DC50: A549 P300 HiBit cells
T1 construct: host or cells: A549 P300 HiBit cells
Method in brief: (§1)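 Degradation potency and Dmax came from HiBiT luminescence in tagged A549 cells treated with serially diluted compound (DMSO stocks at 10 mM) after overnight equilibration in F-12K with 10% heat-inactivated FBS.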

CBP = target: T2, CBP (Homo sapiens, UniProt Q92793); assay: CBP degradation, HiBit technology in A549 CBP HiBit cells (24 h); assay type: cell-based; conditions: 24 hrs post treatment
T2 construct: host or cells: A549 CBP HiBit cells
Method in brief: as §1

T1 sequence (Q09472 whole entry): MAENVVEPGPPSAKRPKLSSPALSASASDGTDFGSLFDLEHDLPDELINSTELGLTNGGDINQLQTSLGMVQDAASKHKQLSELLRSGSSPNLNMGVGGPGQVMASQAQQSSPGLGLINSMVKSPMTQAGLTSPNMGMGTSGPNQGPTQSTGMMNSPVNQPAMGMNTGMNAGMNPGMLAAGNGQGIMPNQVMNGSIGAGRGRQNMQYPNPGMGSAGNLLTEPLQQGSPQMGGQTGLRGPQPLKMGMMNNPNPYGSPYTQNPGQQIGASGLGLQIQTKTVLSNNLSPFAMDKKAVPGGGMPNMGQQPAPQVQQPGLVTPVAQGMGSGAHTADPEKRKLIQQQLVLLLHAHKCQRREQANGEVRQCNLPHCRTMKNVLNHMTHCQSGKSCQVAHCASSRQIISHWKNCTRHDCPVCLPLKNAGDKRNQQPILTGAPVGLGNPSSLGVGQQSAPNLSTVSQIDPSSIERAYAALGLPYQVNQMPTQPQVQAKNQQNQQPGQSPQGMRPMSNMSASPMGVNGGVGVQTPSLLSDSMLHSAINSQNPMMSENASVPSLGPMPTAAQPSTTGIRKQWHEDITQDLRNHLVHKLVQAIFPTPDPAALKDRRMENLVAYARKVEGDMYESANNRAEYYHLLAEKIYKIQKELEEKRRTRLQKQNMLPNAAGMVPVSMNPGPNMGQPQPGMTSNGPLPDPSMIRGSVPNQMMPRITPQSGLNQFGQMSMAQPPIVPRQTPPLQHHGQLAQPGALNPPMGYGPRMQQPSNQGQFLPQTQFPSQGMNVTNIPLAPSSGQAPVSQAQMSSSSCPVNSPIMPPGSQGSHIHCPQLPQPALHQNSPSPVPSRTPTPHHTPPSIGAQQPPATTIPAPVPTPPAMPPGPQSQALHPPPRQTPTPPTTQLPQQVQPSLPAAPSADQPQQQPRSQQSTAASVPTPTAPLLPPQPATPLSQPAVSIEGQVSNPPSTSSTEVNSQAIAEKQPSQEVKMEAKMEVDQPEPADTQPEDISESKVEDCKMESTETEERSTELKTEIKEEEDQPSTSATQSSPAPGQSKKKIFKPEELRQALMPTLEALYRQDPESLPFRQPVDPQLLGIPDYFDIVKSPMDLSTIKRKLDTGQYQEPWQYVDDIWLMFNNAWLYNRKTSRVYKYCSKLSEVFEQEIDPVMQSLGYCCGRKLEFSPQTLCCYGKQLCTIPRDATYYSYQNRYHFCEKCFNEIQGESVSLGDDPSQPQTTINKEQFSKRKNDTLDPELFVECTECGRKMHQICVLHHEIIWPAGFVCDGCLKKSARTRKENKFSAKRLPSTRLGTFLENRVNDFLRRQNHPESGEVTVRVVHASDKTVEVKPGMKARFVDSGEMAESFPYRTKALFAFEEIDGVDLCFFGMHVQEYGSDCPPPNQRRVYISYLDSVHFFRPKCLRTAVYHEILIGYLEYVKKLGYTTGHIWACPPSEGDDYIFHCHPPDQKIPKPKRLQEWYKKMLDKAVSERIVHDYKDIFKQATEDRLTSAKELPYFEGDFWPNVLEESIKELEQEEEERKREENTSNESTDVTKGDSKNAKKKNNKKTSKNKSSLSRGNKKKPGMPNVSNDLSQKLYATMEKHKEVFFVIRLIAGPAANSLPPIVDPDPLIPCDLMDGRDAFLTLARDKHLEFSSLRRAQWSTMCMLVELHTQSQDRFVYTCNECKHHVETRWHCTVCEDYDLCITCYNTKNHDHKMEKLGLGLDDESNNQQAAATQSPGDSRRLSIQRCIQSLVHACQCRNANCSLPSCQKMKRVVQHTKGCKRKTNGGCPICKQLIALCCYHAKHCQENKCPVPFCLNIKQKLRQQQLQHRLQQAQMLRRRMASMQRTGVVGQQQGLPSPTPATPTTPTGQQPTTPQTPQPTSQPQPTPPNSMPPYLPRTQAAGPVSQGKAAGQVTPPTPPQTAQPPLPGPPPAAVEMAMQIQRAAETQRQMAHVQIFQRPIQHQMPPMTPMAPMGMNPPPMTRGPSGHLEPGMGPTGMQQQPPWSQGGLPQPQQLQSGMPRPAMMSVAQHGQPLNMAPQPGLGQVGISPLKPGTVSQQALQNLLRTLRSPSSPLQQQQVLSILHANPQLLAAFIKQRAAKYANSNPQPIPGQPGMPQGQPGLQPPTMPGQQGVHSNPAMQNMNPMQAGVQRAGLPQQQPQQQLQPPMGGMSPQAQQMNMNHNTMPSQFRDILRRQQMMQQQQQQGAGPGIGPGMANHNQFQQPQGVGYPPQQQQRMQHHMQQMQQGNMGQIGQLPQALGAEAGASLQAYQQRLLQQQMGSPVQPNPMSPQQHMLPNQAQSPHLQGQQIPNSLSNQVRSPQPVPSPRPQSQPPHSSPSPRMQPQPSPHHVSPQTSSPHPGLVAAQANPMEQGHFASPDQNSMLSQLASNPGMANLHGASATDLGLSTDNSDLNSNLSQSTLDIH
T2 sequence (Q92793 whole entry): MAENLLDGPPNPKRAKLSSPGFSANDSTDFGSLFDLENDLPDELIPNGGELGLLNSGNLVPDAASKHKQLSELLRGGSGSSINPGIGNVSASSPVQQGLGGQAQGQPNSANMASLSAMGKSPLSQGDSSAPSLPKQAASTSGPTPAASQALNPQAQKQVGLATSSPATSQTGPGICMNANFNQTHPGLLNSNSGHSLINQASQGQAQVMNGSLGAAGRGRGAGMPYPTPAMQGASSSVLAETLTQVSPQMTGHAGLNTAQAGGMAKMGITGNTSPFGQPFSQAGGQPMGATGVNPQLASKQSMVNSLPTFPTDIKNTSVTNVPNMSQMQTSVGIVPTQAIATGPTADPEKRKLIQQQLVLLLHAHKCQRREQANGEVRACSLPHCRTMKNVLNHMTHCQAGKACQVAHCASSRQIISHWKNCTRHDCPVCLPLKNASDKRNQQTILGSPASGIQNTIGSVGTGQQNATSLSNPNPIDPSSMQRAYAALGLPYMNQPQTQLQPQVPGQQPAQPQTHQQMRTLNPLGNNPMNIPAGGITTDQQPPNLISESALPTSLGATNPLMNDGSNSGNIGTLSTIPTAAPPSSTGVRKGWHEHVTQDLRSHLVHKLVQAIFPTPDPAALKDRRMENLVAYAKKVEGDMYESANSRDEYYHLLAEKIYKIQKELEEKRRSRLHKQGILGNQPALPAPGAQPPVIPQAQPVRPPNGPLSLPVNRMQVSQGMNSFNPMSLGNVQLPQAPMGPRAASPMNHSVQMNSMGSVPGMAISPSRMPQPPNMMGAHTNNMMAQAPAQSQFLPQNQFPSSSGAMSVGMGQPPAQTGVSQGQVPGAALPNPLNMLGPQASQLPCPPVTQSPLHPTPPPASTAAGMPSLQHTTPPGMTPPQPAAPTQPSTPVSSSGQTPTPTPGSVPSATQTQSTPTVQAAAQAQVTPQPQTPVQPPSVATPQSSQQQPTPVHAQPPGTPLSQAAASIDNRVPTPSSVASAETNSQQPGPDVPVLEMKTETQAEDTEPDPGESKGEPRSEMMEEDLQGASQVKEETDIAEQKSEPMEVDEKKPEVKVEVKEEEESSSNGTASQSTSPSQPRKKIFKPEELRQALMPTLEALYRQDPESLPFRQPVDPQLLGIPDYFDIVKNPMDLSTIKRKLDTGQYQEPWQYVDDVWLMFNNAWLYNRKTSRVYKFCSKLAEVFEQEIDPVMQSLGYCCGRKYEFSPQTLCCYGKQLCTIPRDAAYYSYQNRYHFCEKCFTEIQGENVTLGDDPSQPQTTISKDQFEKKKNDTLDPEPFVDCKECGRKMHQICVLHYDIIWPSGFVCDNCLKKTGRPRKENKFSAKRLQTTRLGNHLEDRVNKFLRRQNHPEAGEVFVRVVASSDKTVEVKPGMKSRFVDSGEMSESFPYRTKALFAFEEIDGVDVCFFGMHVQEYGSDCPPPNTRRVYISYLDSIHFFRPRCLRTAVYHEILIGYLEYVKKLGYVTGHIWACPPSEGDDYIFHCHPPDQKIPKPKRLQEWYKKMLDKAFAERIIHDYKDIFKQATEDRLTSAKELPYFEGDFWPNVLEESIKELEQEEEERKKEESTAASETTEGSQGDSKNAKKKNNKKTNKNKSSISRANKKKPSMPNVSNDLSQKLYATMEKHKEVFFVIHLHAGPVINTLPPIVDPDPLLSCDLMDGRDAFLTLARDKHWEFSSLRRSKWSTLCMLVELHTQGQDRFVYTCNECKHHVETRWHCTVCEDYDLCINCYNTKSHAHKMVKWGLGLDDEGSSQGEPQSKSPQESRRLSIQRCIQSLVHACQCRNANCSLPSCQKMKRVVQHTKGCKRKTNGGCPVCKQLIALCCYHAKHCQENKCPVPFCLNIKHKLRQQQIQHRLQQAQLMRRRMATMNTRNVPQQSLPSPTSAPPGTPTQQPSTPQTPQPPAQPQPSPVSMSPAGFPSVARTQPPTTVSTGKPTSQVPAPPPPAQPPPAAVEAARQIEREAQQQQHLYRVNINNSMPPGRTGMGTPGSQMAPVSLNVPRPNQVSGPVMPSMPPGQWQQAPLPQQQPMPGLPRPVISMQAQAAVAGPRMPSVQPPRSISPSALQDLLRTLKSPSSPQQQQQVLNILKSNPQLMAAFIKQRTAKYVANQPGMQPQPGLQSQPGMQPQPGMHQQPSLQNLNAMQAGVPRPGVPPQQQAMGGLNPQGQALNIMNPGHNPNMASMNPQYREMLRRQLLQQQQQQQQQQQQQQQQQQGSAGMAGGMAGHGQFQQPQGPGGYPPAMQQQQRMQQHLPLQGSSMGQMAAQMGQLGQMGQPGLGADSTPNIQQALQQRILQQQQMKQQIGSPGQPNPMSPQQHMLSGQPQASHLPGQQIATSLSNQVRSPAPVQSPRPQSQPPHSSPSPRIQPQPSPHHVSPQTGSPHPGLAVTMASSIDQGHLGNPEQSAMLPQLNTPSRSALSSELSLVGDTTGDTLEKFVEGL

Structure (SMILES) | Dmax (p300) | DC50 (p300) | DC50 (CBP) | Dmax (CBP)
Cc1cc2c(N3CCCc4nc(-c5ccc(C(=O)NCC#Cc6ccc7occ([C@H]8CCC(=O)NC8=O)c7c6)nc5)ncc43)cc(C3CCOCC3)cc2n(C)c1=O [Example B54, (R)-5-(5-(1,3-dimethyl-2-oxo-7-(tetrahydro-2H-pyran-4-yl)-1,2-dihydroquinolin-5-yl)-5,6,7,8-tetrahydropyrido[3,2-d]pyrimidin-2-yl)-N-(3-(3-(2,6-dioxopiperidin-3-yl)benzofuran-5-yl)prop-2-yn-1-yl)picolinamide] | > 80% | < 1 nM | > 1000 nM | < 20%
Cc1cc2c(N3CCCc4nc(-c5ccc(C(=O)NCC#Cc6cc7c([C@@H]8CCC(=O)NC8=O)cccc7o6)nc5)ncc43)cc(C3CCOCC3)nc2n(C)c1=O [Example B49, (S)-5-(5-(6,8-dimethyl-7-oxo-2-(tetrahydro-2H-pyran-4-yl)-7,8-dihydro-1,8-naphthyridin-4-yl)-5,6,7,8-tetrahydropyrido[3,2-d]pyrimidin-2-yl)-N-(3-(4-(2,6-dioxopiperidin-3-yl)benzofuran-2-yl)prop-2-yn-1-yl)picolinamide] | > 80% | 1 to 9.9 nM | > 1000 nM | < 20%
CC(C)c1cc(-c2cccc3cc(-c4ccc(C(=O)NCC#Cc5cc6c(C7CCC(=O)NC7=O)coc6cc5F)nc4)ncc23)cc2c1n(C)c(=O)n2C (centres unmarked) [Example A234, N-(3-(3-(2,6-dioxo-piperidin-3-yl)-6-fluorobenzofuran-5-yl)prop-2-yn-1-yl)-5-(8-(7-isopropyl-1,3-dimethyl-2-oxo-2,3-dihydro-1H-benzo [d]imidazol-5-yl)isoquinolin-3-yl)picolinamide] | > 80% | 1 to 9.9 nM | > 1000 nM | < 20%
Cc1cc2c(N3CCCc4nc(-c5ccc(C(=O)NCC#Cc6cc7c([C@H]8CCC(=O)NC8=O)cccc7o6)nc5)ncc43)cc(C3CCOCC3)nc2n(C)c1=O [Example B48, (R)-5-(5-(6,8-dimethyl-7-oxo-2-(tetrahydro-2H-pyran-4-yl)-7,8-dihydro-1,8-naphthyridin-4-yl)-5,6,7,8-tetrahydropyrido[3,2-d]pyrimidin-2-yl)-N-(3-(4-(2,6-dioxopiperidin-3-yl)benzofuran-2-yl)prop-2-yn-1-yl)picolinamide] | > 80% | < 1 nM | 100 to 999 nM | < 20%
Cc1cc(-c2ncc(N(C)c3cc(C4CCOCC4)c4c(c3)n(C)c(=O)n4C)cn2)cnc1C(=O)NCC#Cc1ccc2occ([C@H]3CCC(=O)NC3=O)c2c1 [Example A54, (R)-5-(5-((1,3-dimethyl-2-oxo-7-(tetrahydro-2H-pyran-4-yl)-2,3-dihydro-1H-benzo[d]imidazol-5-yl)(methyl)amino)pyrimidin-2-yl)-N-(3-(3-(2,6-dioxopiperidin-3-yl)benzofuran-5-yl)prop-2-yn-1-yl)-3-methylpicolinamide] | > 80% | 1 to 9.9 nM | > 1000 nM | < 20%
Cn1c(=O)n(C)c2cc(N3CCCc4nc(-c5ccc(C(=O)NCC#Cc6ccc7occ(C8CCC(=O)NC8=O)c7c6)nc5)ncc43)ccc21 (centres unmarked) [Example A132, 5-(5-(1,3-dimethyl-2-oxo-2,3-dihydro-1H-benzo[d]imidazol-5-yl)-5,6,7,8-tetrahydropyrido[3,2-d]pyrimidin-2-yl)-N-(3-(3-(2,6-dioxo-piperidin-3-yl)benzofuran-5-yl)prop-2-yn-1-yl)picolinamide] | > 80% | 1 to 9.9 nM | > 1000 nM | < 20%
CC(C)c1cc(N2CCOc3cc(-c4ccc(C(=O)NCC#Cc5ccc6occ(C7CCC(=O)NC7=O)c6c5)nc4)ncc32)cc2c1n(C)c(=O)n2C (centres unmarked) [Example A58, N-(3-(3-(2,6-dioxopiperidin-3-yl)benzofuran-5-yl)prop-2-yn-1-yl)-5-(4-(7-isopropyl-1,3-dimethyl-2-oxo-2,3-dihydro-1H-benzo[d]imidazol-5-yl)-3,4-dihydro-2H-pyrido[4,3-b][1,4]oxazin-7-yl)picolinamide] | > 80% | 1 to 9.9 nM | > 1000 nM | < 20%
Cc1cc(-c2cc3cccc(-c4ccc5c(c4)n(C)c(=O)n5C)c3cn2)cnc1C(=O)NCC#Cc1cc2c([C@@H]3CCC(=O)NC3=O)cccc2o1 [Example A182, (S)-5-(8-(1,3-dimethyl-2-oxo-2,3-dihydro-1H-benzo[d]imidazol-5-yl)isoquinolin-3-yl)-N-(3-(4-(2,6-dioxopiperidin-3-yl)benzofuran-2-yl)prop-2-yn-1-yl)-3-methylpicolinamide] | > 80% | 1 to 9.9 nM | > 1000 nM | < 20%
Cc1cc2c(N3CCCc4nc(-c5ccc(C(=O)NCC#Cc6cc7c(C8CCC(=O)NC8=O)cccc7o6)nc5)ncc43)cc(C3CC4CCC(C3)O4)nc2n(C)c1=O (centres unmarked) [Example B159, 5-(5-(2-(8-oxabicyclo[3.2.1]octan-3-yl)-6,8-dimethyl-7-oxo-7,8-dihydro-1,8-naphthyridin-4-yl)-5,6,7,8-tetrahydropyrido[3,2-d]pyrimidin-2-yl)-N-(3-(4-(2,6-dioxopiperidin-3-yl)benzofuran-2-yl)prop-2-yn-1-yl)picolinamide] | > 80% | 1 to 9.9 nM | 100 to 999 nM | 20 to 39%
Cc1cc2c(N3CCCc4nc(-c5ccc(C(=O)NCC#Cc6oc7cccc(C8CCC(=O)NC8=O)c7c6F)nc5)ncc43)cc(C3CCOCC3)cc2n(C)c1=O (centres unmarked) [Example B60, 5-(5-(1,3-dimethyl-2-oxo-7-(tetrahydro-2H-pyran-4-yl)-1,2-dihydroquinolin-5-yl)-5,6,7,8-tetrahydropyrido[3,2-d]pyrimidin-2-yl)-N-(3-(4-(2,6-dioxopiperidin-3-yl)-3-fluorobenzo-furan-2-yl)prop-2-yn-1-yl)picolinamide] | > 80% | 1 to 9.9 nM | > 1000 nM | < 20%
CC(C)c1cc(-c2cccc3cc(-c4ccc(C(=O)NCC#Cc5cc(F)c6occ(C7CCC(=O)NC7=O)c6c5)nc4)ncc23)cc2c1n(C)c(=O)n2C (centres unmarked) [Example A254, N-(3-(3-(2,6-dioxo-piperidin-3-yl)-7-fluorobenzofuran-5-yl)prop-2-yn-1-yl)-5-(8-(7-isopropyl-1,3-dimethyl-2-oxo-2,3-dihydro-1H-benzo [d]imidazol-5-yl)isoquinolin-3-yl)picolinamide] | > 80% | 1 to 9.9 nM | > 1000 nM | < 20%
Cn1c(=O)n(C)c2c(N3C4COCC3C4)nc(-c3cccc4cc(-c5ccc(C(=O)NCC#Cc6ccc7occ(C8CCC(=O)NC8=O)c7c6)nc5)ncc34)cc21 (centres unmarked) [Example A99, 5-(8-(4-(3-oxa-6-azabicyclo[3.1.1]heptan-6-yl)-1,3-dimethyl-2-oxo-2,3-dihydro-1H-imidazo[4,5-c]pyridin-6-yl)isoquinolin-3-yl)-N-(3-(3-(2,6-dioxo-piperidin-3-yl)benzofuran-5-yl)prop-2-yn-1-yl)picolinamide] | > 80% | < 1 nM | > 1000 nM | < 20%
Cc1cc(-c2cc3cccc(-c4cc(F)c5c(c4)n(C)c(=O)n5C)c3cn2)cnc1C(=O)NCC#Cc1ccc2occ(C3CCC(=O)NC3=O)c2c1 (centres unmarked) [Example A66, N-(3-(3-(2,6-dioxopiperidin-3-yl)benzofuran-5-yl)prop-2-yn-1-yl)-5-(8-(7-fluoro-1,3-dimethyl-2-oxo-2,3-dihydro-1H-benzo[d]imidazol-5-yl)isoquinolin-3-yl)-3-methylpicolinamide] | > 80% | 1 to 9.9 nM | > 1000 nM | < 20%
CC(C)c1cc(-c2cccc3cc(-c4ccc(C(=O)NCC#Cc5ccn6ncc(C7CCC(=O)NC7=O)c6c5)nc4)ncc23)cc2c1n(C)c(=O)n2C (centres unmarked) [Example A172, N-(3-(3-(2,6-dioxo-piperidin-3-yl)pyrazolo[1,5-a]pyridin-5-yl)prop-2-yn-1-yl)-5-(8-(7-isopropyl-1,3-dimethyl-2-oxo-2,3-dihydro-1H-benzo[d]imidazol-5-yl)isoquinolin-3-yl)picolinamide] | > 80% | < 1 nM | 100 to 999 nM | < 20%
Cc1cc2c(N3CCCc4nc(-c5ccc(C(=O)NCC#Cc6cc7c(C8CCC(=O)NC8=O)nccc7n6C)nc5)ncc43)cc(C3CCOCC3)cc2n(C)c1=O (centres unmarked) [Example B136, 5-(5-(1,3-dimethyl-2-oxo-7-(tetrahydro-2H-pyran-4-yl)-1,2-dihydroquinolin-5-yl)-5,6,7,8-tetrahydropyrido[3,2-d]pyrimidin-2-yl)-N-(3-(4-(2,6-dioxopiperidin-3-yl)-1-methyl-1H-pyrrolo[3,2-c]pyridin-2-yl)prop-2-yn-1-yl) picolinamide] | 60 to 79% | 1 to 9.9 nM | > 1000 nM | < 20%
CCc1cc(-c2cccc3cc(-c4ccc(C(=O)NCC#Cc5ccc6cnn(C7CCC(=O)NC7=O)c6c5)nc4)ncc23)c2cc(C)c(=O)n(C)c2c1 (centres unmarked) [Example B5, N-(3-(1-(2,6-Dioxopiperidin-3-yl)-1H-indazol-6-yl)prop-2-yn-1-yl)-5-(8-(7-ethyl-1,3-dimethyl-2-oxo-1,2-dihydroquinolin-5-yl)isoquinolin-3-yl)picolinamide] | > 80% | 1 to 9.9 nM | > 1000 nM | < 20%
Cc1cc2c(N3CCN(C)c4nc(-c5ccc(C(=O)NCC#Cc6cc7c(C8CCC(=O)NC8=O)nccc7o6)nc5)ncc43)cccc2n(C)c1=O (centres unmarked) [Example B32, 5-(5-(1,3-dimethyl-2-oxo-1,2-dihydroquinolin-5-yl)-8-methyl-5,6,7,8-tetrahydropteridin-2-yl)-N-(3-(4-(2,6-dioxopiperidin-3-yl)furo[3,2-c]pyridin-2-yl)prop-2-yn-1-yl)picolinamide] | > 80% | < 1 nM | 1 to 9.9 nM | 60 to 79%
